According to publication PMC6017564, “Amaryllidaceae Alkaloids as Potential Glycogen Synthase Kinase-3β Inhibitors” (Molecules : A Journal of Synthetic Chemistry and Natural …, 2018):

Key:
GSK-3β [1] = target: T1, GSK-3β (Homo sapiens, UniProt P49841); assay: Kinase-Glo luminescent kinase assay, single concentration […]; type: biochemical; conditions: read-out: % of Inhibition
T1 construct: gene GSK3B

GSK-3β [2] = target: T1, GSK-3β; assay: biochemical; design: Kinase-Glo luminescent ATP-consumption assay, human recombinant GSK-3beta, GSM peptide substrate, 1 uM ATP, 30 min 37 C
Experimental: GSK-3β activity and inhibition were studied according to the luminescent method of Baki et al. using a Kinase-Glo reagent kit. The reaction was performed in 96-well white plates. Each well contained 10 µL of test compound (dissolved in DMSO) at 1 mM concentration and diluted in advance in an assay buffer (pH 7.5) containing 50 mM HEPES, 1 mM EDTA, 1 mM EGTA, and 15 mM magnesium acetate, to the desired concentration, 10 µL of ATP (1 µM final concentration), 10 µL of 100 µM GSM and 10 µL of GSK-3β (20 ng). Ten microliters of either buffer or SB-415286 solution (5 µM final concentration) was added instead of test compound solution in order to obtain the positive (maximum activity) and negative control (total inhibition), respectively. […] The mix was left to react at 37 °C for 30 min. Then the enzymatic reactions were stopped with 40 µL of Kinase-Glo reagent. Glow-type luminescence was recorded after 10 min. The activity is proportional to the difference of the total and consumed ATP. The inhibition activities were calculated on the basis of maximal activity, measured in the absence of inhibitor, and the maximal inhibition was measured in the presence of the reference compound. The IC50 values were calculated using the GraphPad Prism 4.0 program (GraphPad Software Inc., CA, USA). Kinase-Glo Kit was obtained from Promega (Promega Biotech Iberica, S.L., Madrid, Spain), and human recombinant GSK-3β and GSM substrate mimicking Glycogen Muscle Synthase from Merck Millipore (Darmstadt, Germany). Adenosine 5-triphosphate (ATP) disodium salt hydrate, ammonium acetate, ammonium hydroxide, 4-(2-hydroxyethyl)piperazine-1-ethanesulfonic acid (HEPES), ethylene glycol-bis(-aminoethylether)-N,N,N,N-tetraacetic acid tetrasodium salt (EGTA), ethylenediaminetetraacetic acid (EDTA), dimethyl sulfoxide (DMSO), magnesium acetate tetrahydrate, formic acid, and 3-[(3-chloro-4-hydroxyphenyl)amino]-4-(2-nitrophenyl)-1H-pyrrol-2,5-dione were purchased from Sigma-Aldrich (St. Louis, MO, USA). The GSK-3β selective inhibitor SB-415286 ([3-(3-chloro-4-hydroxyphenylamino)-4-(2-nitrophenyl)-1H-pyrrole-2,5-dione]) was purchased from Selleck Chemicals (Houston, TX, USA). Ultrapure water was obtained using a Purite LTD water purification system (Thame, UK). The experiments were carried out using a Victor X3 multimode plate reader (Perkin Elmer, MA, USA). The inhibitory activity of the compounds was first screened at a concentration of 50 µM (Table 1); a synthetic arylindolemaleimide derivative, SB-415286, was used as a positive standard.

GSK-3β [3] = target: T1, GSK-3β; assay: biochemical

T1 sequence (P49841 whole entry): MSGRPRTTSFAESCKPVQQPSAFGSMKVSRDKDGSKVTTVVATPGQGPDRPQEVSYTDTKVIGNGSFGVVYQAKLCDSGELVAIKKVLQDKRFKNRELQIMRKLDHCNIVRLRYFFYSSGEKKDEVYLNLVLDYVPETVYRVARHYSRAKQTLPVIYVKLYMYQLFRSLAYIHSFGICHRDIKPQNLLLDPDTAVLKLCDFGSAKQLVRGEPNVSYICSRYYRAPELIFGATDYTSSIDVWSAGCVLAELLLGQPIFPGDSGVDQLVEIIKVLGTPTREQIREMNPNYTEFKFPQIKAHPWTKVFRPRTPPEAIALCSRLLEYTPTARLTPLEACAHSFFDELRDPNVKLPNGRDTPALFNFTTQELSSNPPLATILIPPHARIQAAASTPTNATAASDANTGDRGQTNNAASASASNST

Row | SMILES | inhibition at 50 µM (GSK-3β [1]) | inhibition at 50 µM (GSK-3β [2]) | IC50 (GSK-3β [3])
1 | CN1CCC2=CCC3OC(O)c4cc5c(cc4C3C21)OCO5 (stereo not drawn) [compound 27, Oduline] | 57.7% |  | 
2 | COc1c2c(cc3c1OCO3)[C@]13C=C[C@H](OC)C[C@H]1N(C2)C[C@@H]3O [Ambelline (7)] |  | 38 ± 0.8% | 
3 | COc1cc2c(cc1O)C1C(CC=C3CCN(C)C31)OC2=O (stereo not drawn) [compound 23, 9-O-Demethylhomolycorine] |  | 63.6 ± 1.3% | 30 µM
4 | COc1cc2c(cc1OC)[C@@H]1[C@H](O)[C@@H](OC)C=C3CCN(C2)[C@H]31 [Galanthine (17)] |  | 26.4 ± 7.7% | 
5 | COc1c2c(cc3c1OCO3)[C@@]13CCN(C2)[C@@H]1C[C@@H](OC)[C@@H]1O[C@@H]13 [Undulatine (9)] |  | 43.3 ± 4% | 
6 | COc1c2c(cc3c1OCO3)[C@@]13CCN(C2)[C@@H]1C[C@@H](O)[C@@H]1O[C@@H]13 [Crinamidine (10)] |  | 32.1 ± 7.9% | 
7 | CO[C@@H]1C=C[C@@]23c4cc5c(cc4CN(C[C@@H]2O)[C@H]3C1)OCO5 [compound 3, Haemanthamine] | 52.4% |  | 
8 | O[C@H]1[C@H]2c3cc4c(cc3CN3CCC(=C[C@@H]1O)[C@H]23)OCO4 [Lycorine (15)] |  | 32.9 ± 0.2% | 
9 | O[C@@H]1CC=C2CCN3Cc4cc5c(cc4[C@H]1[C@@H]23)OCO5 [compound 14, Caranine] |  | 61.8 ± 9.2% | 30.8 µM
10 | COc1cc2c(cc1O)CN1CCC3=CC[C@@H](O)[C@@H]2[C@@H]31 [Norpluviine (19)] |  | 45 ± 4.3% | 
11 | COc1cc2c(cc1OC)[C@H]1[C@H]3C(=CC[C@H]1OC2=O)CCN3C [compound 22, Homolycorine] | 54.4% |  | 
12 | O[C@H]1C=C[C@@]23CCN(Cc4cc5c(cc42)OCO5)[C@@H]3C1 [Crinine (8)] |  | 39.6 ± 5.4% | 
13 | O[C@H]1C=C[C@@]23c4cc5c(cc4CN(C[C@@H]2O)[C@H]3C1)OCO5 [Hamayne (5)] |  | 33.9 ± 0.1% | 
14 | CN1CCC2=C[C@H](O)[C@H]3OC(=O)c4cc5c(cc4[C@H]3[C@@H]21)OCO5 [Hippeastrine (21)] |  | 10.7 ± 2.5% | 
15 | COc1cc2c(cc1OC)[C@@H](O)O[C@@H]1CC=C3CCN(C)[C@H]3[C@H]21 [Lycorenine (25)] |  | 47.6 ± 3.5% | 
16 | CO[C@@H]1C=C[C@@]23c4cc5c(cc4CO[C@]2(O)CN(C)[C@H]3C1)OCO5 [Tazettine (20)] |  | 49.2 ± 0.3% | 
17 | CC(=O)O[C@H]1[C@H]2c3cc4c(cc3CN3CCC(=C[C@@H]1O)[C@H]23)OCO4 [1-O-Acetyllycorine (16)] |  | 49.9 ± 1.9% | 
18 | COc1ccc2c3c1O[C@H]1CC(=O)C=C[C@@]31CCN(C)C2 [Narwedine (12)] |  | 37.7 ± 0.3% | 
19 | CCOC1OC2CC=C3CCN(C)C3C2c2cc(OC)c(OC)cc21 (stereo not drawn) [compound 26, O-Ethyllycorenine] | 57.7% |  | 
20 | CO[C@@H]1C=C[C@@]23c4cc5c(cc4[C@H](O)N(C[C@@H]2O)[C@H]3C1)OCO5 [Haemanthidine (4)] |  | 33 ± 2.2% | 
21 | CN1CCC2=CCC3OC(=O)c4cc5c(cc4C3C21)OCO5 (stereo not drawn) [compound 24, Masonine] |  | 66 ± 4% | 27.8 µM
